For one data set, the target named is T1, ASAL (Allium sativum, UniProt P83886).
T1 construct: gene LECASAL; native 25-kDa homodimer
T1 sequence (P83886 31-140): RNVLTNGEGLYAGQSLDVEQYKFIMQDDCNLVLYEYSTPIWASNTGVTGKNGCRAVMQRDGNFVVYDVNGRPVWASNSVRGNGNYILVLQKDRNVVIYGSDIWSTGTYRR
The data set is classed as binding. The settings on record: read-out: Dissociation constant (Kd).

A further data set deals with T2, mASAL (Allium sativum, UniProt P83886, G129D/INS129NSNN).
T2 construct: gene LECASAL
Description: biochemical.

For a further data set, the system named is Lipaphis erysimi. Description: Insect bioassay with artificial diet. The data set is classed as in vivo. To be noted: second instar nymphs, survival recorded for 72 h, Probit analysis. On the procedure: Insect bioassays were conducted using an artificial diet [9]–[11]. Twenty second instar nymphs of Lipaphis erysimi were used in multiple sets. Polycarbonate petriplates (perforated for air passage at the bottom) were used as a bioassay cage. Nymphs were released into the plates, and the upper edges of the plates were covered with fully stretched parafilm. A modified synthetic diet mixture of 200 µl, supplemented with different concentrations of ASAL and mASAL (5, 10, 15, 20, 25 µg/ml), was dispensed on the stretched parafilm membrane. Another Parafilm membrane was stretched onto this in order to form a pouch. For control plates, 20-mM TrisCl (pH 7.4) was added to the artificial diet instead of experimental proteins. For another set of control experiments, aphids were fed with only 20 mM TrisCl (pH 7.4) without the artificial diet. Each set of experiments for each dose was repeated four times. Data regarding the numbers of nymphs surviving were recorded at 12-h intervals for 72 h. The LC50 values for the toxicity against mustard aphids were determined by Probit analysis ( Table 2 ).

Another data set relates to rabbit erythrocytes. Description: Hemagglutination assay. The data set is classed as cell-based. To be noted: 50 to 6.25 µg/ml, 2% rabbit erythrocytes, 1 hour at 37°C. On the procedure: Blood was collected from the rabbit into a syringe pre-filled with 500-µl 0.9% NaCl solution and the blood was immediately transferred to a culture tube pre-filled with 0.9% saline. Subsequently, the erythrocyte solution was prepared by repeated washing with 0.9% saline and spun at 2500 g for 10 minutes at 4°C. After each cycle, the supernatant was carefully removed. […] The erythrocytes were resuspended in 0.9% saline as a 2% (3.5×10^8 cells/ml) cell suspension. Hemagglutination activity of the purified mASAL and /or ASAL was assayed in a 96-well microtiter U-plate according to a 2-fold serial dilution procedure (50, 25, 12.5, 6.25 µg/ml). The samples were diluted with PBS (137 mM NaCl, 2.7 mM KCl, 10 mM Na2HPO4, 1.8 mM KH2PO4; pH 7.4) at which point 50 µl of protein from each dilution was mixed with 50 µl of a 2% suspension of rabbit erythrocytes.

The test system of the next data set is R. solani hyphae. Put plainly: Immunolocalization assay with anti-ASAL antibody. The data set is classed as cell-based, Rhizoctonia solani. To be noted: 4 µg protein, 40 hours at 25°C.
The test system of the next data set is R. solani. To be noted: 4 µg protein, 40 hours at 25°C.
In the next data set the test system is F. oxysporum. The settings on record: 4 µg protein, 40 hours at 25°C.
The subject of another data set is A. brassicicola. To be noted: 4 µg protein, 40 hours at 25°C.
The conditions of data set [1]: Man9GlcNAc2Asn, at 25°C; cited from earlier work.
Data set [2] concerns the molecule itself. Put plainly: SEC; Biosep-SEC-S-2000 column, 0.1 M sodium phosphate pH 6.8, 2 ml/min; native ASAL as control; data not shown.

“Also recorded” adds a separate entry of the source.

Description for mASAL: Dissociation Constant (Kd) of mannose-bound complex using fluorescence spectroscopy
mASAL and ASAL were separately incubated at 25°C on a Hitachi F-7000 spectrofluorimeter using a Sigma cuvette (volume: 1 ml; pathlength: 1 cm). The solutions were titrated with 10 mM mannose in phosphate buffer (pH 7.2) by adding a small aliquot at a time. Following each addition, the solution was stirred using a magnetic stirrer for 1 min and the fluorescence emission spectrum was recorded between 300 and 400 nm using 295 nm as the excitation wavelength. The excitation and emission band passes were each 5 nm. […] The equation for single-site ligand binding measured through changes in the spectroscopic signal [20] is given by [drawing 1] (1) where ΔF represents the increase or decrease in fluorescence intensity at a given concentration of the ligand, K d is the dissociation constant, and A = K dΔ Fmax. We used equation (1) to calculate the dissociation constant (K d) for binding of mannose, glucose and NAG to mASAL and ASAL.

With `OC[C@H]1OC(O)[C@@H](O)[C@@H](O)[C@@H]1O` (stereo partly drawn) [Mannose, D-mannose], the Kd on ASAL worked out at 60 nM; at mASAL, 120 nM.
As for `CC(=O)N[C@H]1C(O)O[C@H](CO)[C@@H](O)[C@@H]1O` (some centres unmarked) [NAG, N-acetyl glucosamine], the Kd on ASAL came to 300 nM; on mASAL, 110 nM.
For Allium sativum leaf agglutinin [ASAL], the LC50 value with Lipaphis erysimi was determined as 20.7 µg/mL. Further, in the data set with rabbit erythrocytes, the hemagglutination activity entry was “agglutinated cells form a carpet”. Besides, the “binding to fungal membrane (FITC green fluorescence)” value in the data set with R. solani hyphae is “absence of any signal; also recorded: no signals were generated”. Besides, the “propidium iodide uptake (fluorescence, membrane permeabilization)” value with R. solani, with F. oxysporum and in the data set with A. brassicicola was “excluded propidium iodide” each time. In data set [1], the “binding affinity Ka” value was 1.2e+06 M⁻¹.
Regarding `OC[C@H]1OC(O)[C@H](O)[C@@H](O)[C@@H]1O` (stereo partly drawn) [D-glucose], the results for the Kd at ASAL and on mASAL were 140 nM and 160 nM, respectively.

B1: Allium sativum leaf agglutinin (natural protein)
chain: RNLLTNGEGLYAGQSLDVEQYKFIMQDDCNLVLYEYSTPIWASNTGVTGKNGCRAVMQRDGNFVVYDVNGRPVWASNSVRGNGNYILVLQKDRNVVIYGSDIWSTGT
For B1, the “stoichiometry N” value in [2] is 2.

Source of the values: PMC3072408 (PLoS ONE, 2011).
